Test results reported in patent publication US4894458A, “Quinolonecarboxylic acid derivatives and their preparation” (Kyorin Pharmaceutical Co., Ltd., priority 1986, dated 1990).
Values after ≈ are worked out from the molar mass of the structure shown. Read-outs that look alike come from different tables or passages of the source.

What was measured:
[1] = tested on: Escherichia coli NIHJ JC-2; test: In vitro antibacterial activity (aerobic bacteria), MIC; assay type: cell-based; settings: NIHJJC2, aerobic, Gram -, 10^6 cells/ml
[2] = tested on: Yersinia enterocolitica IID 981; test: microbe, parasite or virus in culture; assay type: cell-based; settings: IID981
[3] = tested on: Bacillus subtilis PCI 219; test: In vitro antibacterial activity (aerobic bacteria), MIC; assay type: cell-based; settings: PCI219
P. aeruginosa IFO 12689 = test: as above; assay type: cell-based; settings: Pseudomonas aeruginosa, IFO12689
[4] = tested on: Veillonella parvula KYA 10790; test: In vitro antibacterial activity (anaerobic bacteria), MIC; assay type: cell-based; settings: KYA10790
[5] = tested on: gram-negative and gram-positive bacteria; settings: cited from earlier work
[6] = tested on: Bacteroides fragilis GM 7000; test: In vitro antibacterial activity (anaerobic bacteria), MIC; assay type: cell-based; settings: GM7000
C. ramosum = test: as above; assay type: cell-based; settings: anaerobic; Gram +; 10^6 cells/ml
[7] = tested on: Morganella morganii IID 602; test: In vitro antibacterial activity (aerobic bacteria), MIC; assay type: cell-based; settings: 10^6 cells/ml
Protocol: (§1) Minimal inhibitory concentrations (MICs) were determined in accordance with the method recommended by Japan Society of Chemotherapy.

S. epidermidis IID 866 = test: as above; assay type: cell-based; settings: Staphylococcus epidermidis, IID866, Gram +, 10^6 cells/ml
Protocol: as §1

K. pneumoniae 1-220S = test: as above; assay type: cell-based; settings: Klebsiella pneumoniae, 1220S, Gram -, 10^6 cells/ml
Protocol: as §1

[8] = tested on: Pseudomonas aeruginosa V-1; test: as above; assay type: cell-based; settings: Gram -, 10^6 cells/ml
Protocol: as §1

[9] = tested on: Acinetobacter anitratus IID 876; test: as above; assay type: cell-based; settings: 10^6 cells/ml
Protocol: as §1

[10] = tested on: S. aureus IID 670 (Terajima); test: as above; assay type: cell-based; settings: Staphylococcus aureus, IID670, Gram +, 10^6 cells/ml
Protocol: as §1

[11] = tested on: Serratia marcescens IID 618; test: as above; assay type: cell-based; settings: IID618, Gram -, 10^6 cells/ml
Protocol: as §1

[12] = tested on: Staphylococcus aureus 209 P; test: as above; assay type: cell-based; settings: Gram +, 10^6 cells/ml
Protocol: as §1

P. mirabilis IID 994 = test: as above; assay type: cell-based; settings: Proteus mirabilis, IID994, Gram -, 10^6 cells/ml
Protocol: as §1

[13] = tested on: Citrobacter freundii IID 976; test: as above; assay type: cell-based; settings: aerobic; Gram -; 10^6 cells/ml
B. fragilis 25285 = test: In vitro antibacterial activity (anaerobic bacteria), MIC; assay type: cell-based; settings: Bacteroides fragilis
B. fragilis 0558 = test: as above; assay type: cell-based; settings: Bacteroides fragilis
[14] = tested on: Alcaligenes faecalis 0114002; test: In vitro antibacterial activity (aerobic bacteria), MIC; assay type: cell-based; settings: Alcaligenes faecalis, 0114002, aerobic; Gram -; 10^6 cells/ml
[15] = tested on: B. thetaiotaomicron (0661); test: In vitro antibacterial activity (anaerobic bacteria), MIC; assay type: cell-based; settings: anaerobic; Gram -; 10^6 cells/ml
[16] = tested on: Peptococcus magnus KY 017; test: as above; assay type: cell-based; settings: Gram +, 10^6 cells/ml
Protocol: as §1

O=C(O)c1cn(C2CC2)c2cc(N3CCNCC3)c(F)cc2c1=O [CPFX, ciprofloxacin, reference compound]
MIC [1]: ≤ 0.0063 µg/mL
MIC [2]: 0.05 µg/mL (≈ 0.151 µM)
MIC [3]: 0.05 µg/mL (≈ 0.151 µM)
MIC (P. aeruginosa IFO 12689): 0.2 µg/mL (≈ 0.604 µM)
MIC [4]: 0.2 µg/mL (≈ 0.604 µM)
antibacterial activity compared with norfloxacin [5]: stronger antibacterial activity than norfloxacin
antibacterial potency against gram-positive bacteria ([5]; compared with gram-negative bacteria): considerably inferior to that against gram-negative bacteria
MIC [6]: 6.25 µg/mL (≈ 18.9 µM)
MIC (C. ramosum): 6.25 µg/mL (≈ 18.9 µM)
MIC ([7]; Gram -): 0.025 µg/mL (≈ 0.0754 µM)
MIC ([7]; Morganella morganii, IID602, Gram -, read-out: MIC): 0.05 µg/mL (≈ 0.151 µM)
MIC (S. epidermidis IID 866): 0.2 µg/mL (≈ 0.604 µM)
MIC (K. pneumoniae 1-220S): 0.05 µg/mL (≈ 0.151 µM)
MIC ([8]; Pseudomonas aeruginosa, V1, aerobic, read-out: MIC): 0.05 µg/mL (≈ 0.151 µM)
MIC ([8]; aerobic): 0.10 µg/mL (≈ 0.302 µM)
MIC ([9]; Acinetobacter calcoaceticus, IID876, Gram -, read-out: MIC): 0.1 µg/mL (≈ 0.302 µM)
MIC ([9]; Gram -): 0.20 µg/mL (≈ 0.604 µM)
MIC [10]: 0.2 µg/mL (≈ 0.604 µM)
MIC [11]: 0.05 µg/mL (≈ 0.151 µM)
MIC [12]: 0.2 µg/mL (≈ 0.604 µM)
MIC (P. mirabilis IID 994): 0.025 µg/mL (≈ 0.0754 µM)
MIC [13]: 0.0063 µg/mL (≈ 0.019 µM)
MIC (B. fragilis 25285): 3.13 µg/mL (≈ 9.45 µM)
MIC (B. fragilis 0558): 3.13 µg/mL (≈ 9.45 µM)
MIC [14]: 0.2 µg/mL (≈ 0.604 µM)
MIC [15]: 25 µg/mL (≈ 75.4 µM)
MIC [16]: 0.20 µg/mL (≈ 0.604 µM)
